Data: ChEMBL document CHEMBL4765282, “Design, synthesis and biological evaluation of 1H-pyrazolo [3,4-d]pyrimidine derivatives as PAK1 inhibitors that trigger apoptosis, ER stress and anti-migration effect in MDA-MB-231 cells” (Eur J Med Chem, 2020)
Active and inactive are the calls of the source. The calls are words filed in the database; no cut-off is given here.

Columns and labels:
[1] = test system: MDA-MB-231; assay: Induction of apoptosis in human MDA-MB-231 cells assessed as necrotic cells at 40 uM measured after 24 hrs by Annexin V-FITC/propidium iodide staining based flow cytometry (reference value: 0.16%); assay type: functional
[2] = biological target: T1, Serine/threonine-protein kinase PAK 1 (Homo sapiens, UniProt Q13153); assay: Inhibition of PAK1 phosphorylation at Thr212 residues in human MDA-MB-231 cells at 10 to 40 uM measured after 24 hrs by Western blot analysis; assay type: cell-based; conditions: dose 10-40 µM
[3] = Effect on JUN gene expression in human MDA-MB-231 cells by Trizol reagent based RNA sequencing analysis relative to control; assay type: functional
[4] = biological target: T1, Serine/threonine-protein kinase PAK 1; assay: Inhibition of PAK1 in human MDA-MB-231 cells assessed as reduction in ERK expression at 10 to 40 uM measured after 24 hrs by Western blot analysis; assay type: cell-based; conditions: dose 10-40 µM
[5] = test system: MDA-MB-231; assay: Induction of apoptosis in human MDA-MB-231 cells assessed as increase in caspase-8 cleavage at 10 to 40 uM measured after 24 hrs by Western blot analysis; assay type: functional, cell-based; conditions: dose 10-40 µM
[6] = biological target: T1, Serine/threonine-protein kinase PAK 1; assay: Inhibition of PAK1 in human MDA-MB-231 cells assessed as reduction in c-Raf phosphorylation at Ser259 residues at 10 to 40 uM measured after 24 hrs by Western blot analysis; assay type: cell-based; conditions: dose 10-40 µM
[7] = Upregulation of ATF4 gene expression in human MDA-MB-231 cells by Trizol reagent based RNA sequencing analysis relative to control; assay type: functional
[8] = test system: MDA-MB-231; assay: Upregulation of CHOP expression in human MDA-MB-231 cells at 10 to 40 uM measured after 24 hrs by Western blot analysis; assay type: functional, cell-based; conditions: dose 10-40 µM
[9] = test system: MDA-MB-231; assay: Induction of apoptosis in human MDA-MB-231 cells assessed as increase in caspase-3 cleavage at 10 to 40 uM measured after 24 hrs by Western blot analysis; assay type: functional, cell-based; conditions: dose 10-40 µM
[10] = Effect on G0S2 gene expression in human MDA-MB-231 cells by Trizol reagent based RNA sequencing analysis relative to control; assay type: functional
[11] = biological target: T1, Serine/threonine-protein kinase PAK 1; assay: Inhibition of PAK1 in human MDA-MB-231 cells assessed as reduction in ERK1/2 phosphorylation at Thr202/Tyr204 residues at 10 to 40 uM measured after 24 hrs by Western blot analysis; assay type: cell-based; conditions: dose 10-40 µM
[12] = test system: MDA-MB-231; assay: Inhibition of AKT phosphorylation at Ser473 residue in human MDA-MB-231 cells at 20 uM measured after 24 hrs by immunofluorescence analysis; assay type: cell-based
[13] = test system: MDA-MB-231; assay: Up regulation of E-cadherin expression in human MDA-MB-231 cells at 10 to 40 uM measured after 24 hrs by Western blot analysis; assay type: functional, cell-based; conditions: dose 10-40 µM
[14] = Effect on MMP3 gene expression in human MDA-MB-231 cells by Trizol reagent based RNA sequencing analysis relative to control; assay type: functional
[15] = Effect on KLF15 gene expression in human MDA-MB-231 cells by Trizol reagent based RNA sequencing analysis relative to control; assay type: functional
[16] = biological target: Serine/threonine-protein kinase PAK 2 (Homo sapiens, UniProt Q13177); assay: Inhibition of PAK2 (unknown origin) […] measured after 40 mins by ADP-glo kinase assay
[17] = test system: MDA-MB-231; assay: Upregulation of ATF4 expression in human MDA-MB-231 cells at 10 to 40 uM measured after 24 hrs by Western blot analysis; assay type: functional, cell-based; conditions: dose 10-40 µM
[18] = biological target: T1, Serine/threonine-protein kinase PAK 1; assay: Inhibition of PAK1 in human MDA-MB-231 cells assessed as reduction in MEK1/2 phosphorylation at ser217/221 residues at 10 to 40 uM measured after 24 hrs by Western blot analysis; assay type: cell-based; conditions: dose 10-40 µM
[19] = test system: MDA-MB-231; assay: Induction of apoptosis in human MDA-MB-231 cells assessed as late apoptotic cells at 20 uM measured after 24 hrs by Annexin V-FITC/propidium iodide staining based flow cytometry (reference value: 0.57%); assay type: functional
[20] = Effect on GDF15 gene expression in human MDA-MB-231 cells by Trizol reagent based RNA sequencing analysis relative to control; assay type: functional
[21] = test system: MDA-MB-231; assay: Induction of apoptosis in human MDA-MB-231 cells assessed as early apoptotic cells at 10 uM measured after 24 hrs by Annexin V-FITC/propidium iodide staining based flow cytometry (reference value: 0.81%); assay type: functional
[22] = biological target: Mitogen-activated protein kinase 8/9 (Homo sapiens) (UniProt P45983+P45984); assay: Inhibition of JNK1/2 in human MDA-MB-231 cells assessed as reduction in SAPK/JNK phosphorylation at […] residues at 10 to 40 uM after 24 hrs by Western blot analysis; assay type: cell-based; conditions: dose 10-40 µM
[23] = Effect on BEX2 gene expression in human MDA-MB-231 cells by Trizol reagent based RNA sequencing analysis relative to control; assay type: functional
[24] = test system: MDA-MB-231; assay: Down regulation of PAK1 expression in human MDA-MB-231 cells at 20 uM measured after 24 hrs by immunofluorescence analysis; assay type: functional, cell-based
[25] = test system: MDA-MB-231; assay: Induction of apoptosis in human MDA-MB-231 cells assessed as increase in late apoptosis measured after 24 hrs by Annexin V-FITC/propidium iodide staining based flow cytometry; assay type: functional, cell-based
[26] = Effect on TCP10L gene expression in human MDA-MB-231 cells by Trizol reagent based RNA sequencing analysis relative to control; assay type: functional
[27] = Effect on CXCL2 gene expression in human MDA-MB-231 cells by Trizol reagent based RNA sequencing analysis relative to control; assay type: functional
[28] = Effect on ALPP gene expression in human MDA-MB-231 cells by Trizol reagent based RNA sequencing analysis relative to control; assay type: functional
[29] = Effect on GPT2 gene expression in human MDA-MB-231 cells by Trizol reagent based RNA sequencing analysis relative to control; assay type: functional
[30] = test system: MDA-MB-231; assay: Upregulation of XBP-1s expression in human MDA-MB-231 cells at 10 to 40 uM measured after 24 hrs by Western blot analysis; assay type: functional, cell-based; conditions: dose 10-40 µM
[31] = Effect on TRIB3 gene expression in human MDA-MB-231 cells by Trizol reagent based RNA sequencing analysis relative to control; assay type: functional
[32] = Effect on EGR1 gene expression in human MDA-MB-231 cells by Trizol reagent based RNA sequencing analysis relative to control; assay type: functional
[33] = test system: MDA-MB-231; assay: Upregulation of PERK expression in human MDA-MB-231 cells transfected with si-PAK1 at 10 uM measured after 24 hrs by Western blot analysis; assay type: functional, cell-based
[34] = organism: Homo sapiens; assay: Selectivity ratio of IC50 for inhibition of PAK2 (unknown origin) to IC50 for inhibition of PAK1 (unknown origin)
[35] = test system: MDA-MB-231; assay: Induction of apoptosis in human MDA-MB-231 cells assessed as necrotic cells at 20 uM measured after 24 hrs by Annexin V-FITC/propidium iodide staining based flow cytometry (reference value: 0.16%); assay type: functional
[36] = Effect on DDIT3 gene expression in human MDA-MB-231 cells by Trizol reagent based RNA sequencing analysis relative to control; assay type: functional
[37] = Effect on SHMT2 gene expression in human MDA-MB-231 cells by Trizol reagent based RNA sequencing analysis relative to control; assay type: functional
[38] = Effect on KLHDC7B gene expression in human MDA-MB-231 cells by Trizol reagent based RNA sequencing analysis relative to control; assay type: functional

T1 sequence (Q13153 whole entry): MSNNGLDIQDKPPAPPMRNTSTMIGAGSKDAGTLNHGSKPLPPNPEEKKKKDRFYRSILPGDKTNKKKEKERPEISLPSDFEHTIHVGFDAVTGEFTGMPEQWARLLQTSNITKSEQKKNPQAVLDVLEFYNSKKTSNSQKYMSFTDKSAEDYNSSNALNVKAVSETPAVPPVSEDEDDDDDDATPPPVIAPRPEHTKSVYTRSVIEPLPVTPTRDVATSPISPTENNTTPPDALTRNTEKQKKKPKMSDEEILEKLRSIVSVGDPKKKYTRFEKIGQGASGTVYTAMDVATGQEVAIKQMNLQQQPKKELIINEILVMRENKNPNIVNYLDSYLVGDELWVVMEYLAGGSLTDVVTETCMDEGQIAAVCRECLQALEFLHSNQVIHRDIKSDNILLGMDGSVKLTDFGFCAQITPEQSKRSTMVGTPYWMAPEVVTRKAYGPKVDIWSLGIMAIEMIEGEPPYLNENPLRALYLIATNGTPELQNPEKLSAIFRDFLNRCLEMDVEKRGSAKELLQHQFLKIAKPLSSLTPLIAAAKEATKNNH
Serine/threonine-protein kinase PAK 2, sequence (Q13177 whole entry): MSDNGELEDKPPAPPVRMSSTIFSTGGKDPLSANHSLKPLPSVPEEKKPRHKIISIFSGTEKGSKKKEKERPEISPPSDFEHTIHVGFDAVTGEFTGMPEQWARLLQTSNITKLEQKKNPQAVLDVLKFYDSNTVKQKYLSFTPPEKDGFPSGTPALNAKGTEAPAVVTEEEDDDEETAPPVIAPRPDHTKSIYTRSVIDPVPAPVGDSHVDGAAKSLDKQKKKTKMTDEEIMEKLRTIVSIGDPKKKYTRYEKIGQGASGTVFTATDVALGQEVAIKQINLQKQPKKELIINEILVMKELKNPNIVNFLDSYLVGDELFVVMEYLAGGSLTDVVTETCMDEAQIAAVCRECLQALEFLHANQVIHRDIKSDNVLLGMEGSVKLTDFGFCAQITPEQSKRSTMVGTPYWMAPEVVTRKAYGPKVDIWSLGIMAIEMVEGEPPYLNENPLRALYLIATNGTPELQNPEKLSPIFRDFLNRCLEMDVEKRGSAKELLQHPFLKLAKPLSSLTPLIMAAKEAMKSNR
Mitogen-activated protein kinase 8/9 (Homo sapiens), sequence (P45983 whole entry, looked up): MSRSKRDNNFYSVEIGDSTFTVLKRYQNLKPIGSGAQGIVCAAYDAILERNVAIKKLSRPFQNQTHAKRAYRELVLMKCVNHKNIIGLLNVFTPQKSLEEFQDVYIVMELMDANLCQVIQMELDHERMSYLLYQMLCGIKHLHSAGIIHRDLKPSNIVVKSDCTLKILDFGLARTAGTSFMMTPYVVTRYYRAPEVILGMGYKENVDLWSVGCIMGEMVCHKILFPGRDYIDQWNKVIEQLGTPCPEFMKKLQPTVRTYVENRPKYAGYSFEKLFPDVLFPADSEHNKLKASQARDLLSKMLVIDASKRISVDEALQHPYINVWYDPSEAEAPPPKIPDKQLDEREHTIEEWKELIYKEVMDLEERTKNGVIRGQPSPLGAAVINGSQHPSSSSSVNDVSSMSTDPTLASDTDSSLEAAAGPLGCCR
Mitogen-activated protein kinase 8/9 (Homo sapiens), sequence (P45984 whole entry, looked up): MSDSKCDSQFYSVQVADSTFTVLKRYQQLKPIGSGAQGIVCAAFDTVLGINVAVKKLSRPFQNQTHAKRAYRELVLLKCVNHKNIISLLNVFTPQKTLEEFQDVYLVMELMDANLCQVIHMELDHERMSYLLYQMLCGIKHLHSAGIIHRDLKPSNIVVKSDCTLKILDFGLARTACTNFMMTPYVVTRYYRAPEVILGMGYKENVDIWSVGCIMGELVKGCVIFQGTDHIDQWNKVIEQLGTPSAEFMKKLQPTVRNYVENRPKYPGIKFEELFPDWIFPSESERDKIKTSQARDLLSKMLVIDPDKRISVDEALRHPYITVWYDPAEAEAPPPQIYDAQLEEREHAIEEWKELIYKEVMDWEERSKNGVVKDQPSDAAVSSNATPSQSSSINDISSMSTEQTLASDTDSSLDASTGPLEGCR

inhibition [2]: Active | inhibition [4]: Active | inhibition [6]: Active | inhibition [11]: Active | IC50 [16]: 1.04 µM | inhibition [18]: Active | inhibition [22]: Active | Ratio IC50 [34]: 5
Compound: O=C(Nc1cc(C(F)(F)F)cc(C(F)(F)F)c1)NC1CCN(c2ncnc3[nH]ncc23)CC1
Activity [1]: 0.91% | fold change (FC) [3]: >2 | Activity [5]: Active | fold change (FC) [7]: >2 | Activity [8]: Active | Activity [9]: Active | fold change (FC) [10]: >2 | inhibition [12]: Active | Activity [13]: Active | fold change (FC) [14]: >2 | fold change (FC) [15]: >2 | Activity [17]: Active | Activity [19]: 6.91% | fold change (FC) [20]: >2 | Activity [21]: 7.16% | fold change (FC) [23]: >2 | Activity [24]: Active | Activity [25]: Dose-dependent effect | fold change (FC) [26]: >2 | fold change (FC) [27]: >2 | fold change (FC) [28]: >2 | fold change (FC) [29]: >2 | Activity [30]: Active | fold change (FC) [31]: >2 | fold change (FC) [32]: >2 | Activity [33]: inactive | Activity [35]: 0.59% | fold change (FC) [36]: >2 | fold change (FC) [37]: >2 | fold change (FC) [38]: >2
